Laboratory results published in US10597388B2, “Pyridazinone herbicides” (FMC CORPORATION, priority 2014, dated 2020).

Tests used:
Type in all cases: in vivo
corn (Zea mays) = experiment: Test C greenhouse herbicide test, pre- and postemergence
Summary of the method: (§1)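 Percent-control ratings (0 none, 100 complete) came from visual comparison with controls held alongside in the greenhouse for 13–15 d. Treatments covered soil application at sowing and foliar application to young plants 2–18 cm tall.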

[1] = system: lambsquarters (Chenopodium album); experiment: as above
Summary of the method: as §1

[2] = system: velvetleaf (Abutilon theophrasti); experiment: as above
Summary of the method: as §1

[3] = system: wheat (winter wheat, Triticum aestivum); experiment: as above
Summary of the method: as §1

[4] = system: barnyardgrass (Echinochloa crus-galli); experiment: as above
Summary of the method: as §1

[5] = system: blackgrass (Alopecurus myosuroides); experiment: as above
Summary of the method: as §1

[6] = system: oilseed rape (Brassica napus); experiment: as above
Summary of the method: as §1

[7] = system: johnsongrass (Sorghum halepense); experiment: as above
Summary of the method: as §1

[8] = system: foxtail, giant (giant foxtail, Setaria faberii); experiment: as above
Summary of the method: as §1

[9] = system: pigweed (Amaranthus retroflexus); experiment: as above
Summary of the method: as §1

[10] = system: morningglory (Ipomoea coccinea); experiment: as above
Summary of the method: as §1

[11] = system: crabgrass, large (large crabgrass, Digitaria sanguinalis); experiment: as above
Summary of the method: as §1

[12] = system: waterhemp (common waterhemp, Amaranthus rudis); experiment: as above
Summary of the method: as §1

[13] = system: nutsedge, yellow (yellow nutsedge, Cyperus esculentus); experiment: as above
Summary of the method: as §1

kochia (Kochia scoparia) = experiment: Test C greenhouse herbicide test, postemergence; settings: Postemergence
Summary of the method: (§2)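 Test chemicals were applied postemergence to greenhouse plants at the 1- to 4-leaf stage (2–18 cm tall) growing in peat/vermiculite medium. After 13–15 d, injury was rated visually against untreated controls on a 0–100 scale (0 = no effect, 100 = complete control).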

[14] = system: oat, wild (wild oat, Avena fatua); experiment: Test C greenhouse herbicide test, postemergence; settings: Postemergence
Summary of the method: as §2

[15] = Postemergence, 31 g ai/ha, scale 0 to 100 (0 no effect, 100 complete control)
[16] = Postemergence, 125 g ai/ha, scale 0 to 100, 0 is no effect, 100 is complete control
[17] = Postemergence, 250 g ai/ha, scale 0 to 100, 0 no effect, 100 complete control, 13 to 15 d
[18] = Preemergence, 31 g ai/ha, scale 0 to 100, 0 is no effect, 100 is complete control
[19] = Preemergence, 62 g ai/ha, scale 0 to 100, 0 is no effect, 100 is complete control
[20] = Preemergence, 125 g ai/ha, scale 0 to 100, 0 is no effect, 100 is complete control
[21] = Preemergence, 250 g ai/ha, scale 0 to 100 (0 no effect, 100 complete control)
[22] = postemergence, 62 g ai/ha, scale 0 to 100, 0 no effect, 100 complete control
[23] = 31 g ai/ha, scale 0 to 100 (0 no effect, 100 complete control)
[24] = 125 g ai/ha, scale 0 to 100, 0 is no effect, 100 is complete control
[25] = 250 g ai/ha, scale 0 to 100, 0 no effect, 100 complete control, 13 to 15 d

Which results are given for Cc1nn(C)c(=O)c(-c2c(C)sc3ccc(Cl)cc23)c1O [Compound 104]?
Plant response rating, Corn (corn (Zea mays); [15]): 5; Plant response rating, Corn (corn (Zea mays); [16]): 50; Plant response rating, Corn (corn (Zea mays); [17]): 30; Plant response rating, Corn (corn (Zea mays); [18]): 5; Plant response rating, Corn (corn (Zea mays); [19]): 0; Plant response rating, Corn (corn (Zea mays); [20]): 15; Corn plant response rating (corn (Zea mays); [21]): 10; Corn plant response rating (corn (Zea mays); [22]): 80; Plant response rating, Lambsquarters [1, 15]: 90; Plant response rating, Lambsquarters [1, 16]: 100; Plant response rating, Lambsquarters [1, 17]: 100; Plant response rating, Lambsquarters [1, 18]: 85; Plant response rating, Lambsquarters [1, 19]: 85; Plant response rating, Lambsquarters [1, 20]: 95; Lambsquarters plant response rating [1, 21]: 95; Plant response rating, Velvetleaf [2, 15]: 50; Plant response rating, Velvetleaf [2, 16]: 98; Plant response rating, Velvetleaf [2, 17]: 90; Plant response rating, Velvetleaf [2, 18]: 40; Plant response rating, Velvetleaf [2, 19]: 80; Plant response rating, Velvetleaf [2, 20]: 90; Velvetleaf plant response rating [2, 21]: 90; Plant response rating, Wheat [3, 15]: 0; Plant response rating, Wheat [3, 16]: 5; Plant response rating, Wheat [3, 17]: 10; Plant response rating, Wheat [3, 18]: 5; Plant response rating, Wheat [3, 19]: 5; Plant response rating, Wheat [3, 20]: 5; Wheat plant response rating [3, 21]: 0; Plant response rating, Barnyardgrass [4, 15]: 20; Plant response rating, Barnyardgrass [4, 16]: 45; Plant response rating, Barnyardgrass [4, 17]: 55; Plant response rating, Barnyardgrass [4, 18]: 10; Plant response rating, Barnyardgrass [4, 19]: 25; Plant response rating, Barnyardgrass [4, 20]: 40; Barnyardgrass plant response rating [4, 21]: 80; Barnyardgrass plant response rating [4, 22]: 35; Plant response rating, Blackgrass [5, 15]: 15; Plant response rating, Blackgrass [5, 16]: 50; Plant response rating, Blackgrass [5, 17]: 55; Plant response rating, Blackgrass [5, 18]: 5; Plant response rating, Blackgrass [5, 19]: 15; Plant response rating, Blackgrass [5, 20]: 30; Blackgrass plant response rating [5, 21]: 60; Blackgrass plant response rating [5, 22]: 35; Plant response rating, Oilseed Rape [6, 15]: 85; Plant response rating, Oilseed Rape [6, 16]: 95; Plant response rating, Oilseed Rape [6, 17]: 98; Plant response rating, Oilseed Rape [6, 18]: 5; Plant response rating, Oilseed Rape [6, 19]: 30; Plant response rating, Oilseed Rape [6, 20]: 85; Oilseed Rape plant response rating [6, 21]: 95; Plant response rating, Johnsongrass [7, 15]: 10; Plant response rating, Johnsongrass [7, 16]: 5; Plant response rating, Johnsongrass [7, 17]: 5; Plant response rating, Johnsongrass [7, 18]: 10; Plant response rating, Johnsongrass [7, 19]: 20; Plant response rating, Johnsongrass [7, 20]: 20; Johnsongrass plant response rating [7, 21]: 30; Plant response rating, Foxtail, Giant [8, 15]: 50; Plant response rating, Foxtail, Giant [8, 16]: 75; Plant response rating, Foxtail, Giant [8, 17]: 85; Plant response rating, Foxtail, Giant [8, 18]: 75; Plant response rating, Foxtail, Giant [8, 19]: 85; Plant response rating, Foxtail, Giant [8, 20]: 75; Foxtail, Giant plant response rating [8, 21]: 100; Plant response rating, Pigweed [9, 15]: 95; Plant response rating, Pigweed [9, 16]: 100; Plant response rating, Pigweed [9, 17]: 100; Plant response rating, Pigweed [9, 18]: 100; Plant response rating, Pigweed [9, 19]: 100; Plant response rating, Pigweed [9, 20]: 100; Pigweed plant response rating [9, 21]: 100; Plant response rating, Morningglory [10, 15]: 98; Plant response rating, Morningglory [10, 16]: 100; Plant response rating, Morningglory [10, 17]: 100; Plant response rating, Morningglory [10, 18]: 80; Plant response rating, Morningglory [10, 19]: 95; Plant response rating, Morningglory [10, 20]: 100; Morningglory plant response rating [10, 21]: 98; Plant response rating, Crabgrass, Large [11, 15]: 20; Plant response rating, Crabgrass, Large [11, 16]: 35; Plant response rating, Crabgrass, Large [11, 17]: 55; Plant response rating, Crabgrass, Large [11, 18]: 40; Plant response rating, Crabgrass, Large [11, 19]: 55; Plant response rating, Crabgrass, Large [11, 20]: 55; Crabgrass, Large plant response rating [11, 21]: 60; Crabgrass, Large plant response rating [11, 22]: 30; Plant response rating, Waterhemp [12, 15]: 70; Plant response rating, Waterhemp [12, 16]: 100; Plant response rating, Waterhemp [12, 17]: 95; Plant response rating, Waterhemp [12, 18]: 75; Plant response rating, Waterhemp [12, 19]: 90; Plant response rating, Waterhemp [12, 20]: 100; Waterhemp plant response rating [12, 21]: 100; Plant response rating, Nutsedge, Yellow [13, 15]: 55; Plant response rating, Nutsedge, Yellow [13, 16]: 60; Plant response rating, Nutsedge, Yellow [13, 17]: 75; Plant response rating, Nutsedge, Yellow [13, 18]: 30; Plant response rating, Nutsedge, Yellow [13, 19]: 45; Plant response rating, Nutsedge, Yellow [13, 20]: 75; Nutsedge, Yellow plant response rating [13, 21]: 85; Plant response rating, Kochia (kochia (Kochia scoparia); [23]): 95; Plant response rating, Kochia (kochia (Kochia scoparia); [24]): 95; Plant response rating, Kochia (kochia (Kochia scoparia); [25]): 100; Plant response rating, Oat, Wild [14, 23]: 80; Plant response rating, Oat, Wild [14, 24]: 90; Plant response rating, Oat, Wild [14, 25]: 90
